Test results: a melting point compilation (Tetko et al.)

Row | SMILES | melting point
1 | Cc1nc(N)[nH]c(=O)c1CC(=O)O | 313 to 315 °C
2 | NC(=O)N1CCCC1 | 222 to 224 °C
3 | CC(C)(C)OC(=O)NC(C(=O)O)c1ccccc1 (centres undefined) | 113 to 115 °C
4 | O=C(O)C1(c2ccc(Cl)cc2)CCOCC1 | 181 to 183 °C
5 | CCOC(=O)c1c(C)oc2nc(CCl)nc(N)c12 | 191 to 195 °C
6 | CC(=O)c1c(C)[nH]c(C(=O)O)c1C | 205 to 207 °C
7 | CC(Cl)C(=O)NCC(=O)c1ccccc1 (centres undefined) | 86 to 88 °C
8 | O=C(O)CCSc1ccnc2cc(Cl)ccc12 | 209 to 211 °C
9 | CCc1cccc(C)c1Nc1nnc(S)s1 | 155 to 157 °C
10 | COCCOc1ccc(C(C)=O)cc1OC | 85 to 87 °C
11 | NC1CCCCNC1=O (centres undefined) | 54 to 56 °C
12 | Oc1cc(C2CC2)ncn1 | 188 to 190 °C
13 | O=C(O)c1c2c(nc3ccccc13)C(=Cc1ccccc1Cl)CCC2 | 98 to 100 °C
14 | COCCOc1ccc(C(=O)O)cn1 | 134 to 136 °C
15 | Cc1cc(C)c2nc(C3CC3)cc(C(=O)O)c2c1 | 207 to 209 °C
16 | Clc1ncnc2c1CCCCC2 | 50 to 52 °C
17 | Cc1n[nH]c(=O)c2noc(C)c12 | 213 to 215 °C
18 | CC(CC(=O)O)S(=O)(=O)c1ccc(F)cc1 (centres undefined) | 126 to 128 °C
19 | CN(C)S(=O)(=O)c1c(Cl)nc2ccccn12 | 109 to 111 °C
20 | O=C(NC1CCCC1)c1ccccc1O | 75 to 77 °C

Row | SMILES | melting point
21 | CC(C)(C)c1csc(-c2ccc(O)cc2)n1 | 228 to 230 °C
22 | CC(=Cc1ccc(Cl)cc1)C(=O)O | 159 to 161 °C
23 | Nc1sc2c(c1-c1nc3ccccc3s1)CCCC2 | 100 to 104 °C
24 | Nc1onc(-c2ccco2)c1-c1ccc2c(c1)OCO2 | 138 to 140 °C
25 | O=C1c2ccccc2C(=O)N1CC1CN(Cc2ccccc2)CCO1 (centres undefined) | 136 to 138 °C
26 | COc1cc(C=O)ccc1OCc1c(C)cc(C(C)(C)C)cc1C | 139 to 141 °C
27 | O=C(O)c1cc(S(=O)(=O)N2CCCCC2)ccc1Br | 230 to 232 °C
28 | N#Cc1nc(-c2ccco2)oc1N1CCNCC1 | 129 to 131 °C
29 | O=c1[nH]c(CCl)nc2sc(-c3ccccc3)cc12 | 286 to 288 °C
30 | CC(=O)c1ccc(OC2CCCCC2)cc1 | 74 to 76 °C
31 | O=C(O)CC1c2ccccc2Oc2ccccc21 | 153 to 155 °C
32 | CCCCS(N)(=O)=O | 43 to 45 °C
33 | O=C(O)COc1ccc(C(=O)c2ccc(Cl)cc2)cc1 | 185 to 187 °C
34 | CS(=O)(=O)c1cc(Br)ccc1[N+](=O)[O-] | 152 to 154 °C
35 | O=C(O)c1cccc(N2CCCC2=O)c1 | 195 to 208 °C
36 | Nc1cc(S(=O)(=O)NC2CC2)c(Cl)cc1F | 120 to 122 °C
37 | O=[N+]([O-])c1cc2c(cc1S(=O)(=O)Cl)OCCCO2 | 125 to 127 °C
38 | Nc1cc(-c2ccc(Cl)cc2)no1 | 164 to 166 °C
39 | CN1CCN(S(=O)(=O)c2ccc(Cl)c(N)c2)CC1 | 103 to 107 °C
40 | O=C(O)CCn1cnc2sccc2c1=O | 165 to 167 °C

Row | SMILES | melting point
41 | COc1ccccc1-c1ccc(C(C)=O)cc1 | 107 to 109 °C
42 | N#Cc1ccc(-n2cncn2)nc1 | 203 to 205 °C
43 | Cn1ccnc(NN)c1=O | 131 to 133 °C
44 | Cc1ccc(Cl)cc1N1CC(C(=O)O)CC1=O (centres undefined) | 129 to 131 °C
45 | CC1C(=O)NC(=O)N1c1ccccc1 (centres undefined) | 147 to 149 °C
46 | O=C(O)c1cccc(S(=O)(=O)Nc2ccccc2Cl)c1 | 186 to 188 °C
47 | c1cc(C2CCCNC2)[nH]n1 (centres undefined) | 74 to 76 °C
48 | Cc1nc2cc(=O)[nH]n2c(C)c1CC(=O)O | 285 to 287 °C
49 | O=C(O)CSc1csc(-c2ccc(Br)cc2)n1 | 178 to 180 °C
50 | O=C(O)c1cccnc1OCC(F)(F)F | 122 to 124 °C
51 | COc1ccc(OCCCC(=O)O)cc1 | 101 to 105 °C
52 | COC(=O)c1oc(CO)cc1C | 87 to 89 °C
53 | COc1cccc(NC(=O)c2ccccc2N(C)C(=O)CCC(=O)O)c1 | 125 to 127 °C
54 | COc1c(F)ccc(F)c1C(=O)O | 82 to 84 °C
55 | CC(C)c1cc(N)n(-c2ncccn2)n1 | 146 to 148 °C
56 | O=Cc1c(-c2ccccc2)nc2sccn12 | 128 to 130 °C
57 | NS(=O)(=O)c1cc(Br)c(Cl)c(C(=O)O)c1 | 219 to 221 °C
58 | O=C(CCl)NCc1ccccc1F | 79 to 81 °C
59 | CC1=NN(c2ccc(F)cc2)C(=O)C1 | 148 to 150 °C
